From ChEMBL document CHEMBL1201862, “PubChem BioAssay data set” (2004)
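Cultured in 96-well plates, cells were exposed to test compound for 48 hours across five concentrations. At the GI50, growth is halved.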 Activity calls are given as the source filed them. No stated cut-off is given here; in the data, active = GI50 up to about 1.1 µM and inactive = higher.

Assays:
Experiment in all cases: DTP human tumour cell line panel, 48 h
[1] = system: SW-620
[2] = system: SNB-75
[3] = system: SK-MEL-2
[4] = system: HCT-116
[5] = system: TK-10
[6] = system: DMS-114
[7] = system: OVCAR-3
[8] = system: SK-MEL-28
[9] = system: DMS-273
[10] = system: NCI-H460
[11] = system: SK-MEL-5
[12] = system: NCI-H226
[13] = system: EKVX
[14] = system: A498
[15] = system: UACC-257
[16] = system: SK-OV-3

Measured: GI50

COc1ccc(CNc2cnc3cc(N)ccc3n2)cc1
inactive: [1] > 100 µM | [2] 52.6 µM | [3] > 100 µM | [4] > 100 µM | [5] > 100 µM | [6] > 100 µM | [7] > 100 µM | [8] > 100 µM | [9] > 100 µM | [10] > 100 µM | [11] > 100 µM | [12] 80.7 µM | [13] > 100 µM

CCN/C(=N\Nc1ccc([N+](=O)[O-])cc1)P(=O)(OC(C)C)OC(C)C
inactive: [14] > 100 µM | [1] > 100 µM | [2] 49.9 µM | [3] > 100 µM | [4] > 100 µM | [5] > 100 µM | [6] > 100 µM | [7] > 100 µM | [8] 99.8 µM | [9] > 100 µM | [15] 68.1 µM | [10] > 100 µM | [11] 41.1 µM | [12] 25.8 µM | [13] > 100 µM

CC1(C)S[C@H](c2ccccc2C(=O)O)N[C@@H]1CC(=O)O
inactive: [14] > 100 µM | [1] > 100 µM | [2] > 100 µM | [4] > 100 µM | [6] > 100 µM | [8] > 100 µM | [9] > 100 µM | [15] > 100 µM | [10] > 100 µM | [11] > 100 µM | [12] > 100 µM | [13] > 100 µM

O=C(/C=C/c1ccccc1Cl)c1ccccc1Cl
inactive: [14] 49.1 µM | [1] 12.6 µM | [2] 30.3 µM | [4] 14.6 µM | [5] 37.5 µM | [6] 19.9 µM | [7] 18.9 µM | [8] 19.1 µM | [16] 72.6 µM | [9] 16.9 µM | [15] 19.8 µM | [10] 19.2 µM | [11] 31.6 µM | [12] 45.9 µM | [13] 22.4 µM

NC1=C(NC(=O)Cc2ccc(F)cc2)C(=O)c2ccccc2C1=O
inactive: [1] > 100 µM | [2] 29.2 µM | [3] > 60 µM | [4] 32 µM | [5] 30.9 µM | [6] 16 µM | [7] 26.4 µM | [8] > 100 µM | [16] 19.4 µM | [9] 33.1 µM | [15] 79.3 µM | [10] > 82.2 µM | [11] 14.4 µM | [12] > 50.4 µM | [13] > 100 µM

COC(=O)C1Cc2c([nH]c3ccccc23)C(c2ccccc2O)N1 (centres undefined)
inactive: [14] 21.3 µM | [1] > 100 µM | [2] 88.1 µM | [3] > 100 µM | [4] 66.8 µM | [5] 52 µM | [6] 58.1 µM | [7] 49.7 µM | [8] > 100 µM | [16] > 100 µM | [9] 60.4 µM | [15] 84.1 µM | [10] 18.5 µM | [11] 59 µM | [12] > 100 µM | [13] > 100 µM

c1ccc(C2=NN3CN(N2)c2ccccc2OCCCOc2ccccc23)cc1
inactive: [1] > 100 µM | [2] 88.5 µM | [3] > 100 µM | [4] > 100 µM | [5] > 100 µM | [6] > 100 µM | [7] > 100 µM | [8] > 100 µM | [9] > 100 µM | [10] > 100 µM | [11] > 100 µM | [12] > 100 µM | [13] > 100 µM

O=C(c1ccccc1)C1CCCCN1C(=O)c1ccccc1 (centres undefined)
inactive: [14] > 100 µM | [1] > 100 µM | [2] > 100 µM | [3] > 100 µM | [4] > 100 µM | [5] > 100 µM | [6] > 100 µM | [7] > 100 µM | [8] > 100 µM | [16] > 100 µM | [9] > 100 µM | [15] > 100 µM | [10] > 100 µM | [11] > 100 µM | [12] > 100 µM

CC[C@@]12N=C(N(C)C)C[C@]1(O)ON=C2C
inactive: [14] > 100 µM | [1] > 100 µM | [2] > 100 µM | [3] > 100 µM | [4] > 100 µM | [5] > 100 µM | [6] > 100 µM | [7] > 100 µM | [8] > 100 µM | [16] > 100 µM | [9] > 100 µM | [10] > 100 µM | [11] > 100 µM | [12] > 100 µM | [13] > 100 µM
